The values below come from patent US20260109715A1, “IMIDAZOPYRIDINE DERIVATIVES WITH BICYCLIC STRUCTURE” (PUBLIC UNIVERSITY CORPORATION YOKOHAMA CITY UNIVERSITY, priority 2022, published 2026).

One assay has as its target human SMG1 enzyme (Homo sapiens, UniProt Q96Q15). Put plainly: Measurement of SMG1 kinase activity (ADP-Glo Kinase Assay). As to conditions: purified human SMG1 enzyme 5 nM, Upf1 peptide substrate, ATP 4 μM; qAC50 synonymous with IC50; read-out: Test Example 1 ADP-Glo IC50. Format: biochemical. The essentials:
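ADP-Glo luminescence readout of ADP made by 5 nM human SMG1 acting on 8 μg/mL Upf1 peptide with 4 μM ATP for 60 min at room temperature, after a 15 min enzyme–compound preincubation (1% DMSO; pH 7.5 HEPES, MnCl2). Activity scaled between DMSO and no-enzyme wells; IC50 by four-parameter logistic regression.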
(In general: ADP-Glo first removes unused ATP, then detects ADP through luciferase.)

The test system of assay [1] is Snhg1 transcript (NMD target gene) in EMT6 murine breast cancer cell line. Put plainly: Measurement of NMD inhibitory activity in cells (increase in Snhg1 transcript, real-time PCR). Also noted: species or system mouse. The note with it: Mus musculus, 6 hours treatment, concentration giving 1/2 of maximum Snhg1 fold change of positive control, read-out: Test Example 2 Cell-based Snhg1 EC50. The essentials: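 EMT6 cells treated with serially diluted compound (2% DMSO final) for 6 h; Snhg1 transcript quantified by real-time PCR (ΔΔCT, Tbp endogenous control, untreated wells set to 1). EC50 taken as concentration giving half the maximum fold change of a known NMD inhibitor positive control.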
In general terms: Quantitative PCR measures a nucleic acid by following its amplification.

In assay [2] the test system is Snhg1 transcript in tumor tissues of mice subcutaneously implanted with EMT6 murine breast cancer cell line. Put plainly: Evaluation of NMD inhibitory activity in vivo (Snhg1 transcript in EMT6 tumor tissue after oral administration). As to conditions: 6 hours after administration, BALB/c mice. The protocol: The NMD inhibitory activity of a compound of the present invention or a pharmaceutically acceptable salt thereof in vivo can be measured, for example, by the method described below. Using mice subcutaneously implanted with EMT6 murine breast cancer cell line, tumor tissues 6 hours after oral administration of a test substance are excised, and the increase in Snhg1 transcript is quantified as an indicator of NMD inhibition in the tumor, in the same manner as in the in vitro method.
In this test, NMD inhibitory activity in tumor tissues was evaluated when a test substance was orally administered to mice subcutaneously implanted with EMT6 murine breast cancer cell line. As an indicator of NMD inhibitory activity, the increase in the transcript of Snhg1, an NMD target gene, was quantified. First, BALB/c mice were subcutaneously implanted with EMT6 cells (ATCC), and engraftment was confirmed 7 days later. Six hours after administration of the test substance, mice were euthanized, and the collected tumor tissues were cryopreserved. RNA was extracted from the tumor tissues using the illustra RNAspin Mini RNA Isolation kit (GE Healthcare Life Sciences). After synthesizing cDNA using the High-Capacity cDNA Reverse Transcription Kits (Applied Biosystems, 4368813), the cDNA was mixed with PrimeTime Gene Expression Master Mix (Integrated DNA Technologies) and various probes, and gene expression was quantified by QuantStudio 6 Flex (Thermo Fisher Scientific Inc.). For the probe for the Snhg1 gene, which is an NMD target, Mm.PT.58.44039547 (FAM) (Integrated DNA Technologies) was used, and for the probe for the Gapdh gene, which is an endogenous control, Mm99999915_g2 (VIC-PL) (Applied Biosystems) was used. The relative quantification of Snhg1 transcripts in each sample was calculated by the ΔΔCT method using Gapdh as an endogenous control, and the expression level of Snhg1 in each test substance administration group was calculated by setting the expression level of the Vehicle group (0.5% methylcellulose administration group) to 1.

Sequence of human SMG1 enzyme (Q96Q15 whole entry): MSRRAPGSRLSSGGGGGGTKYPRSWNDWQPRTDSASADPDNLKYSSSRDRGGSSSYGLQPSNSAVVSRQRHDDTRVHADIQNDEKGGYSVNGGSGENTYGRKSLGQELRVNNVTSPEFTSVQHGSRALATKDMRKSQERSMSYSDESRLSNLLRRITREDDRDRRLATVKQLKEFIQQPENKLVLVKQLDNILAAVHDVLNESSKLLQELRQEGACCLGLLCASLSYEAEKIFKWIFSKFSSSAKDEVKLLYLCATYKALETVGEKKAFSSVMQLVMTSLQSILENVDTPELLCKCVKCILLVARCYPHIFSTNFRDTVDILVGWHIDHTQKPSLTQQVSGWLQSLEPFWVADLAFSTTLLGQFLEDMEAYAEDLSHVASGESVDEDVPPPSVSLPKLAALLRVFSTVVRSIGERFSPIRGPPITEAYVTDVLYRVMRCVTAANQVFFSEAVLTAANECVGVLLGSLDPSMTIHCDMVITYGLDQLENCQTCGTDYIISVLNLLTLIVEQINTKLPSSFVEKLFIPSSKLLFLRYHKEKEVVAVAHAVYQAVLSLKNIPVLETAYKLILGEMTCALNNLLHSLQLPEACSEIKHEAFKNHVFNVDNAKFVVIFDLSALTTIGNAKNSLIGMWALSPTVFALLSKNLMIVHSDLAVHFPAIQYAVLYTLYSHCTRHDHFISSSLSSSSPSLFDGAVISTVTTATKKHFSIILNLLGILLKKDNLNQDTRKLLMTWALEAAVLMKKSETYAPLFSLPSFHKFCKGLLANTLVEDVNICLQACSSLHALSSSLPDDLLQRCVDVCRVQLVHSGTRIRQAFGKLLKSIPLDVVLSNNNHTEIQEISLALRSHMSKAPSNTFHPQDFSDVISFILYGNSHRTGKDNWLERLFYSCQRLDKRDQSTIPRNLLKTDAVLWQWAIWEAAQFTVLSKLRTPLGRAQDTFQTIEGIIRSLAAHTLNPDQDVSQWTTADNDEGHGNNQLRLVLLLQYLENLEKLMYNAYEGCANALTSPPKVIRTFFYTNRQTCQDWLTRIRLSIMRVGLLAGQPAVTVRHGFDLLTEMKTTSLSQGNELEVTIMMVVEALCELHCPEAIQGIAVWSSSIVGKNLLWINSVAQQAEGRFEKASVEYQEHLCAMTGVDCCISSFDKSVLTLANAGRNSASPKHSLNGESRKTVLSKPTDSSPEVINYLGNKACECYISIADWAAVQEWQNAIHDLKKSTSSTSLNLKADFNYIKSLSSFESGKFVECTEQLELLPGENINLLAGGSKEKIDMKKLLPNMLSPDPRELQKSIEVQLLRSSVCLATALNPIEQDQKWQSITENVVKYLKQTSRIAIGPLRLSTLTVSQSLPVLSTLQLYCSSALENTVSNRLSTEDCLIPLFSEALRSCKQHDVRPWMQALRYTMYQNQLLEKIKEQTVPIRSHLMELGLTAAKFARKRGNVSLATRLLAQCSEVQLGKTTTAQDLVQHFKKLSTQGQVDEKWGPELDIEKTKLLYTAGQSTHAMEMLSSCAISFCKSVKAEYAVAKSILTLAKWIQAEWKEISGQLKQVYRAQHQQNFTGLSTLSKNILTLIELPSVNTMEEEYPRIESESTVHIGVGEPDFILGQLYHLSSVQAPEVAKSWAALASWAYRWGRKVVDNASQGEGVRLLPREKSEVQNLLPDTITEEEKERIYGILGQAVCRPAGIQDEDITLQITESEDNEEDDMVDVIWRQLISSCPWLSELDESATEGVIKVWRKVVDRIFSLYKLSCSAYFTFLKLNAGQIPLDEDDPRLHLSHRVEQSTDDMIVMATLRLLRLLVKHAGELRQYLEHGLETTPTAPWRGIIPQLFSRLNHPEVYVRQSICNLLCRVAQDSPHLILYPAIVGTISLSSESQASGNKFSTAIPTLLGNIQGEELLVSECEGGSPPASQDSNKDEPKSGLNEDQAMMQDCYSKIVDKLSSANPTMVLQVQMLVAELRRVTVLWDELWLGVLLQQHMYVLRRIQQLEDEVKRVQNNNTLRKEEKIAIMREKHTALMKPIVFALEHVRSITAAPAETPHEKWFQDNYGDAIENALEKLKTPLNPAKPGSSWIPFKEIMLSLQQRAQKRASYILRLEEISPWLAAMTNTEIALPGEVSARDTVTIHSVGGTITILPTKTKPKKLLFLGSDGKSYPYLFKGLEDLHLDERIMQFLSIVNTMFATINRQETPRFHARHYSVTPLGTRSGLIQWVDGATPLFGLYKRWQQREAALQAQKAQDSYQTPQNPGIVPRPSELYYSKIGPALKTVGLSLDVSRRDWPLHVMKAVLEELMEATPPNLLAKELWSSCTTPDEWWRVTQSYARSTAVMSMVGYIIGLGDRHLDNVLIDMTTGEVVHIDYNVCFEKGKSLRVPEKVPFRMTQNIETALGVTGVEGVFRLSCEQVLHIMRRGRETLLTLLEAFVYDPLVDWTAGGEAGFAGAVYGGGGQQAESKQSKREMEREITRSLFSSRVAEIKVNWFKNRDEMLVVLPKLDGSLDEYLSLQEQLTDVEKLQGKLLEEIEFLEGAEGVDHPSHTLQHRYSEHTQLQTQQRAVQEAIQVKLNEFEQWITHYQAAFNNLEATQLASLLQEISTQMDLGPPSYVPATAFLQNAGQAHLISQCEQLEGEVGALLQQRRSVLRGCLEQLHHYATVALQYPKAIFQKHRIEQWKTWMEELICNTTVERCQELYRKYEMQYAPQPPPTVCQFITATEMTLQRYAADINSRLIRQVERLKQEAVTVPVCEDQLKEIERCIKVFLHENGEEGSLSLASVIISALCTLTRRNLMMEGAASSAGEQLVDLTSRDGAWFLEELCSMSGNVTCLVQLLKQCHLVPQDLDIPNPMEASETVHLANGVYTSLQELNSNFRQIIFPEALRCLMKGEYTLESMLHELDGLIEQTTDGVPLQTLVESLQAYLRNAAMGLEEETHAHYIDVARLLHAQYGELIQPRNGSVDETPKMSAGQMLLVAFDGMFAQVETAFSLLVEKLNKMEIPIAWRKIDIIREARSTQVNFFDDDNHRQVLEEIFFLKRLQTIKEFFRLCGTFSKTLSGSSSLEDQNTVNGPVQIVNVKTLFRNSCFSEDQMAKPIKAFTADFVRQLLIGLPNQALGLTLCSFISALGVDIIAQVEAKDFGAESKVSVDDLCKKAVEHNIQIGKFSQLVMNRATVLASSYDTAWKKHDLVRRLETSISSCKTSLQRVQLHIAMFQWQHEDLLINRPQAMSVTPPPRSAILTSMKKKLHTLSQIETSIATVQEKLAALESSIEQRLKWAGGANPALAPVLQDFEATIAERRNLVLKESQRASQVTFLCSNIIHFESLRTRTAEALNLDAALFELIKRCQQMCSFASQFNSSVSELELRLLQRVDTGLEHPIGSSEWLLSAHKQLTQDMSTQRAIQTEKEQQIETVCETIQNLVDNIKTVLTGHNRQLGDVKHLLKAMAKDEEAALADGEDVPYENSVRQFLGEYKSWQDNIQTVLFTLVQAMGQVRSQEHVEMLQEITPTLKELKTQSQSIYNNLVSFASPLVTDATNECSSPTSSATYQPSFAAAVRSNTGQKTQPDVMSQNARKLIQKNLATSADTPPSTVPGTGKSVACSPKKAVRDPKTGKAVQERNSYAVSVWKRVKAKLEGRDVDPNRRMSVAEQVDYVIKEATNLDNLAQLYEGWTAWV

As usually defined, the IC50 is the concentration that gives 50% inhibition. The EC50 is the concentration giving half of the maximal effect. `CS(=O)(=O)O.Cc1nc(Cl)cc2[nH]c(-c3cc4c(-c5ccccc5OC(F)F)nccc4[nH]c3=O)nc12` [Example 132, 3-(6-chloro-4-methyl-1H-imidazo[4,5-c]pyridin-2-yl)-5-[2-(difluoromethoxy)phenyl]-1,6-naphthyridin-2(1H)-one methanesulfonate]: at human SMG1 enzyme, the concentration for half-maximal inhibition (IC50) stood at 3.5 nM. Moreover, in assay [1], the half-maximal effective concentration (EC50) amounted to 50 nM. Moreover, the Snhg1 fold change in assay [2] (10 mg/kg oral) came to 7.4.
For the compound `CS(=O)(=O)O.[2H]C([2H])([2H])Oc1ccccc1-c1nccc2[nH]c(=O)c(-c3nc4cnc(Cl)cc4[nH]3)cc12` [Example 133, 3-(6-chloro-1H-imidazo[4,5-c]pyridin-2-yl)-5-{2-[(2H3)methyloxy]phenyl}-1,6-naphthyridin-2(1H)-one methanesulfonate], the IC50 on human SMG1 enzyme was 2.4 nM. The EC50 in assay [1] turned out to be 44 nM. In assay [2] (12.5 mg/kg oral), this compound returned a Snhg1 fold change of 8.2.
In the case of `CS(=O)(=O)O.[2H]C([2H])([2H])Oc1cccc(F)c1-c1nccc2[nH]c(=O)c(-c3nc4cnc(Cl)cc4[nH]3)cc12` [Example 135, 3-(6-chloro-1H-imidazo[4,5-c]pyridin-2-yl)-5-{2-fluoro-6-[(2H3)methyloxy]phenyl}-1,6-naphthyridin-2(1H)-one methanesulfonate], the IC50 on human SMG1 enzyme worked out at 2.2 nM. The concentration giving a half-maximal response (EC50) in assay [1] is 39 nM. In assay [2] (12.5 mg/kg oral), this compound displayed a Snhg1 fold change of 10.
`CS(=O)(=O)O.[2H]C([2H])([2H])Oc1cccc(F)c1-c1nccc2[nH]c(=O)c(-c3nc4c(CC)nc(Cl)cc4[nH]3)cc12` [Example 136, 3-(6-chloro-4-ethyl-1H-imidazo[4,5-c]pyridin-2-yl)-5-{2-fluoro-6-[(2H3)methyloxy]phenyl}-1,6-naphthyridin-2(1H)-one methanesulfonate]: the 50% inhibitory concentration (IC50) on human SMG1 enzyme worked out at 0.63 nM. In assay [1], the EC50 came to 5.3 nM. In addition, the Snhg1 fold change in assay [2] (10 mg/kg oral) was 4.8.
With `CCc1nc(Cl)cc2[nH]c(-c3cc4c(-c5c(O)cccc5F)nccc4[nH]c3=O)nc12.CS(=O)(=O)O` [Example 137, 3-(6-chloro-4-ethyl-1H-imidazo[4,5-c]pyridin-2-yl)-5-(2-fluoro-6-hydroxyphenyl)-1,6-naphthyridin-2(1H)-one methanesulfonate], the 50% inhibitory concentration (IC50) at human SMG1 enzyme was 1.2 nM. Moreover, the EC50 in assay [1] was 10 nM. The compound also returned a Snhg1 fold change in assay [2] (25 mg/kg oral) of 5.1.
Turning to `CCc1nc(Cl)cc2[nH]c(-c3cc4c(-c5cnc(C6CC6)cc5OC)nccc4[nH]c3=O)nc12.CS(=O)(=O)O` [Example 138, 3-(6-chloro-4-ethyl-1H-imidazo[4,5-c]pyridin-2-yl)-5-(6-cyclopropyl-4-methoxypyridin-3-yl)-1,6-naphthyridin-2(1H)-one methanesulfonate], the IC50 at human SMG1 enzyme came to 0.36 nM. Moreover, in assay [1], the 50% effective concentration (EC50) worked out at 1.8 nM. Besides, the Snhg1 fold change in assay [2] (10 mg/kg oral) is given as 12.
The matching figures for `CCc1cc(OC)c(-c2nccc3[nH]c(=O)c(-c4nc5c(CC)nc(Cl)cc5[nH]4)cc23)cn1.CS(=O)(=O)O` [Example 139, 3-(6-chloro-4-ethyl-1H-imidazo[4,5-c]pyridin-2-yl)-5-(6-ethyl-4-methoxypyridin-3-yl)-1,6-naphthyridin-2(1H)-one methanesulfonate]: 0.31 nM, 4.3 nM and 7.5.
Consider `COc1cc(C2CC2)ncc1-c1nccc2[nH]c(=O)c(-c3nc4c(C)nc(Cl)cc4[nH]3)cc12.CS(=O)(=O)O` [Example 140, 3-(6-chloro-4-methyl-1H-imidazo[4,5-c]pyridin-2-yl)-5-(6-cyclopropyl-4-methoxypyridin-3-yl)-1,6-naphthyridin-2(1H)-one methanesulfonate], for which the IC50 at human SMG1 enzyme amounted to 1 nM. The EC50 in assay [1] came to 8.8 nM. This compound also registered a Snhg1 fold change in assay [2] (10 mg/kg oral) of 6.3.
In the same order, the values of `CCc1nc(Cl)cc2[nH]c(-c3cc4c(-c5cnc(C(F)F)cc5OC)nccc4[nH]c3=O)nc12.CS(=O)(=O)O` [Example 141, 3-(6-chloro-4-ethyl-1H-imidazo[4,5-c]pyridin-2-yl)-5-[6-(difluoromethyl)-4-methoxypyridin-3-yl]-1,6-naphthyridin-2(1H)-one methanesulfonate] are 0.37 nM, 3.1 nM and 8.4.
As to `COc1ncccc1-c1nccc2[nH]c(=O)c(-c3nc4c(NCC(F)(F)F)nc(Cl)cc4[nH]3)cc12.CS(=O)(=O)O` [Example 142, 3-{6-chloro-4-[(2,2,2-trifluoroethyl)amino]-1H-imidazo[4,5-c]pyridin-2-yl}-5-(2-methoxypyridin-3-yl)-1,6-naphthyridin-2(1H)-one methanesulfonate], the IC50 on human SMG1 enzyme stood at 0.63 nM. The concentration for a half-maximal effect (EC50) in assay [1] was 3.7 nM. The Snhg1 fold change in assay [2] (10 mg/kg oral) is given as 11.
For `COc1ncccc1-c1nccc2[nH]c(=O)c(-c3nc4c(NCC(F)F)nc(Cl)cc4[nH]3)cc12.CS(=O)(=O)O` [Example 143, 3-{6-chloro-4-[(2,2-difluoroethyl)amino]-1H-imidazo[4,5-c]pyridin-2-yl}-5-(2-methoxypyridin-3-yl)-1,6-naphthyridin-2(1H)-one methanesulfonate], on human SMG1 enzyme, the IC50 came out at 0.85 nM. In assay [1], the EC50 is 12 nM. In assay [2] (10 mg/kg oral), the Snhg1 fold change is on record as 8.5.
Consider `COc1cc(OC)c(-c2nccc3[nH]c(=O)c(-c4nc5c(C)nc(Cl)cc5[nH]4)cc23)cn1.CS(=O)(=O)O` [Example 144, 3-(6-chloro-4-methyl-1H-imidazo[4,5-c]pyridin-2-yl)-5-(4,6-dimethoxypyridin-3-yl)-1,6-naphthyridin-2(1H)-one methanesulfonate], for which the concentration for half-maximal inhibition (IC50) at human SMG1 enzyme is 0.95 nM. In addition, the EC50 in assay [1] was 19 nM. The compound also showed a Snhg1 fold change in assay [2] (30 mg/kg oral) of 4.8.
In the case of `CCc1nc(Cl)cc2[nH]c(-c3cc4c(-c5cnc(C(F)(F)F)cc5OC)nccc4[nH]c3=O)nc12.CS(=O)(=O)O` [Example 145, 3-(6-chloro-4-ethyl-1H-imidazo[4,5-c]pyridin-2-yl)-5-[4-methoxy-6-(trifluoromethyl)pyridin-3-yl]-1,6-naphthyridin-2(1H)-one methanesulfonate], the IC50 at human SMG1 enzyme was determined as 1.2 nM. Further, the EC50 in assay [1] is 3.1 nM. In addition, in assay [2] (10 mg/kg oral), the Snhg1 fold change stood at 8.9.
In the same order, the values of `CCc1nc(Cl)cc2[nH]c(-c3cc4c(-c5cnc(OC(F)F)cc5OC)nccc4[nH]c3=O)nc12.CS(=O)(=O)O` [Example 146, 3-(6-chloro-4-ethyl-1H-imidazo[4,5-c]pyridin-2-yl)-5-[6-(difluoromethoxy)-4-methoxypyridin-3-yl]-1,6-naphthyridin-2(1H)-one methanesulfonate] are 0.49 nM, 3.8 nM and 10.
The matching figures for `CCc1nc(Cl)cc2[nH]c(-c3cc4c(-c5cnc(C(C)(F)F)cc5OC)nccc4[nH]c3=O)nc12.CS(=O)(=O)O` [Example 147, 3-(6-chloro-4-ethyl-1H-imidazo[4,5-c]pyridin-2-yl)-5-[6-(1,1-difluoroethyl)-4-methoxypyridin-3-yl]-1,6-naphthyridin-2(1H)-one methanesulfonate]: 0.67 nM, 3.9 nM and 9.5.
`CCc1nc(Cl)cc2[nH]c(-c3cc4c(-c5c(C)nn(C(F)F)c5C)nccc4[nH]c3=O)nc12.CS(=O)(=O)O` [Example 148, 3-(6-chloro-4-ethyl-1H-imidazo[4,5-c]pyridin-2-yl)-5-[1-(difluoromethyl)-3,5-dimethyl-1H-pyrazol-4-yl]-1,6-naphthyridin-2(1H)-one methanesulfonate]: the half-inhibitory concentration (IC50) on human SMG1 enzyme worked out at 0.73 nM. Moreover, the half-maximal effective concentration (EC50) in assay [1] came to 12 nM. Also, the Snhg1 fold change in assay [2] (10 mg/kg oral) was determined as 5.8.
In the same order, the values of `CS(=O)(=O)O.Cc1nn(C(F)F)c(C)c1-c1nccc2[nH]c(=O)c(-c3nc4c(N5CC[C@H]5C)nc(Cl)cc4[nH]3)cc12` [Example 149, 3-{6-chloro-4-[(2R)-2-methylazetidin-1-yl]-1H-imidazo[4,5-c]pyridin-2-yl}-5-[1-(difluoromethyl)-3,5-dimethyl-1H-pyrazol-4-yl]-1,6-naphthyridin-2(1H)-one methanesulfonate] are 0.67 nM, 0.61 nM and 12.
